Results from paper PMC8521618 (ACS Medicinal Chemistry Letters, 2021).

Test: Pharmacokinetics in mice
Conditions: for Vd: Vss, PK parameters (mouse)
[1] = CD1, mouse, in vivo, iv, 1 mg/kg, Table 3

## CC(=O)N(C)C1CCN(c2cc(F)cc(NC(=O)c3cc4c(F)ccc(C)c4[nH]3)c2)C1 (stereo not drawn) [Compound 25, 4-fluoro-N-[3-fluoro-5-[3-(N-methylacetamido)pyrrolidin-1-yl]phenyl]-7-methyl-1H-indole-2-carboxamide]
[1]
  Vd: 1.04 L/kg
mouse, 50 mpk
  estimated Fa: <0.01 (50 mpk)

## Cc1ccc(F)c2cc(C(=O)N[C@@H]3CCC[C@H](N4CC[C@H](N(C)S(C)(=O)=O)C4)C3)[nH]c12 [Compound 32]
[1]
  Vd: 8.13 L/kg
CD1, mouse, in vivo, iv, 1 mg/kg, terminal t1/2, PK parameters (mouse), Table 3
  half-life: 3.13 h
mouse, 10 mpk, 0.5% CMC/0.1% Tween80
  fraction absorbed: 0.6
mouse, 30 mpk
  estimated Fa: 0.7 (30 mpk)
